Data as given in US4131686A, “Novel benzylalcohol derivatives and processes for preparing the same” (Tanabe Seiyaku Co., Ltd., priority 1975, dated 1978).

Legend:
blood-pressure = conditions: known cardiotonic compounds, U.S. Pat. 3869474 and Offenlegungsschrift 2420427; cited from earlier work
adrenergic β1 -receptor = conditions: known compounds, U.S. Pat. 3869474 and Offenlegungsschrift 2420427; cited from earlier work
[1] = acute toxicity: 50% lethal dose (LD50) by oral administration to mice; conditions: mouse, in vivo
blood sugar = experiment: blood sugar-lowering test: oral administration to mice prior to subcutaneous injection of glucose (one g/kg); format: in vivo; conditions: 100 mg/kg required; same conditions (mice, oral, s.c. glucose one g/kg)

Structure (SMILES) | influence upon blood-pressure (blood-pressure) | activation of adrenergic β1-receptor (adrenergic β1 -receptor) | LD50 [1] [mg/kg] | decrease in the blood sugar (blood sugar) [%]
COc1cc(CCNCC(O)c2ccc(O)c(O)c2)cc(OC)c1OC (stereo not drawn) [α-(3,4,5-trimethoxyphenethylaminomethyl)-3,4-dihydroxybenzylalcohol] | no substantial influence | selective activation | – | –
COc1ccc(CCNCC(O)c2ccccc2OC)cc1OC (racemic) [dl-α-(3,4-dimethoxyphenethylaminomethyl)-2-methoxybenzylalcohol] | – | – | ~580 | –
N=C(N)NC(=N)NCCc1ccccc1 [Phenformin, 1-phenethylbiguanide] | – | – | – | ~30
COc1ccc(CCNCC(O)c2ccc(O)c(O)c2)cc1OC (stereo not drawn) [α-(3,4-dimethoxyphenethylaminomethyl)-3,4-dihydroxybenzylalcohol] | no substantial influence | selective activation | – | –
